Patent US4464354A, “(3,4-c)-Pyrido psoralens, process of preparation, application in cosmetology and therapeutics, and cosmetological and pharmaceutical composition with them” (Institut National de la Sante et de la Recherche Medicale, priority 1982, dated 1984)
Entries after “also recorded” stand apart in the source; their conditions may differ.

Legend:
[1] = tested on: normal human skin; assay: erythema test on normal human skin (forearm); assay type: in vivo; details: for erythematogenicity (conclusion): in vivo
Description: The clinical and therapeutic activity of compounds 1a and 1b has been also measured on human skin. 10 mg of compounds 1a and 1b were diluted in 2 g of a purified lanolin commercially available under the name ROC hydrocerine which was made liquid by heating to 60° C. This local preparation was first tested on normal human skin (of the forearm). An amount of 10 micrograms/cm2 of products 1a and 1b was applied to a circular cutaneous surface 3 cm in diameter. The two products were left on the skin for 2 hours to insure a sufficient cutaneous penetration. […] The same experiment was repeated a second time with irradiation of 20 J/cm2 through a glass plate in order to filter out all the ultraviolet B radiation. […] This erythema, slightly apparent, continued for 18 days. […] The […] result of the reflective photoplethysmograph were totally identical for products 1a and 1b. […] The […] only appeared in doses of irradiation where are twice that customarily used in a therapeutic treatment.

[2] = tested on: Saccharomyces cerevisiae yeast; assay: induction of lethal effects in yeast with 365 nm irradiation (UVA); assay type: cell-based; details: for photodynamic activity (oxygen dependent) on induction of lethal damages: yeast
Description: (§1) This photobiological activity has in effect been defined by the induction of lethal effects, the induction of "small colony" cytoplasmic mutations (damage in the mitochondrial DNA) and the induction of nuclear mutations (reverse and forward). The experiments were conducted in the customary manner in conformity with the following references:
Thus, the dose of UVA must be between 2.5 and 5 times weaker in the case of compounds 1a and 1b than in the case of 8-MOP to attain the same survival rate.

[3] = tested on: psoriasis; details: human, in vivo; cited from earlier work
[4] = mice, after exposure to light in the near ultraviolet range around 365 nm; cited from earlier work
[5] = tested on: DNA; assay: photoaffinity for DNA in vivo; assay type: cell-based, yeast
[6] = spectroscopic absorption properties; assay type: physicochemical; details: compared with psoralen
Excerpt: Compounds 1a and 1b have similar spectroscopic properties which differ markedly with respect to those of psoralen.

[7] = tested on: haploid strain of Saccharomyces cerevisiae yeast; assay: induction of nuclear mutations: His+ reversions; assay type: cell-based; details: 5×10^-6 M, same survivor rate
Description: as §1
The induction of nuclear mutations (reversions and "forward" mutations) has been determined according to procedures described in the above-mentioned articles.

[8] = tested on: V79 chinese hamster cells; assay: antiproliferatory effect: inhibition of colony formation of V79 cells; assay type: cell-based; details: 5×10^-6 M
Description: The photobiological activity of the two monofunctional componds 1a and 1b have been studied in mammalian cells in vitro in order to determine their antiproliferatory effect.
A diploid strain of V79 chinese hamster cells were used.
The action of the compounds on cell survival (i.e. the antiproliferatory effect) was determined by measuring their power to inhibit the capacity of cells to form colonies. The technique used is that described by C.

[9] = tested on: synthesis of DNA; assay: photosensitizer effect on DNA synthesis in human fibroblasts; assay type: cell-based; details: UVA 365 nm
Excerpt: (§2) (F. Bordin, F. Baccichetti and L. Musajo, Experientia 28, 148 (1972)).
(§3) The cells cultivated in Petri dishes having a minimum Eagle medium with 10% embryonic calf serum were marked by precursors which were specific to the exponential phase of growth. The rates of synthesis were estimated by measuring the incorporation of the radioactive precursors in the acid-precipitable material (see S. Nocentini, Biochim. Biophys., Acta 521, 160 (1978)).

[10] = tested on: Saccharomyces cerevisiae yeast; assay: induction of forward mutations (resistance to canavanine); assay type: cell-based
Description: This photobiological activity has in effect been defined by the induction of lethal effects, the induction of "small colony" cytoplasmic mutations (damage in the mitochondrial DNA) and the induction of nuclear mutations (reverse and forward). The experiments were conducted in the customary manner in conformity with the following references: […]

[11] = tested on: synthesis of RNA; assay: photosensitizer effect on RNA synthesis in human fibroblasts; assay type: cell-based; details: UVA 365 nm
Excerpt: as §2, §3

[12] = tested on: psoriatic plaque; assay: therapeutic test on psoriatic plaque, products 1a and 1b; assay type: in vivo, human
Description: 10 mg of compounds 1a and 1b were diluted in 2 g of a purified lanolin commercially available under the name ROC hydrocerine which was made liquid by heating to 60° C. Products 1a and 1b have also been tested in the same excipient on a high inflammatory psoriatic plaque. These two products were applied to surfaces having a 3 cm diameter. On a third surface the excipient alone was applied. […] The products and the lanolin alone were applied 2 hours before irradiation. […] This whitening was practically as fast in the zones treated with products 1a and 1b. The zone treated with lanolin alone remained unchanged.

[13] = tested on: normal skin; assay: pigmentogenic properties on normal skin; assay type: in vivo, human; details: 0.5%
Excerpt: The pigmentogenic properties of products 1a and 1b have been tested on normal skin at a concentration of 0.5%.

[14] = tested on: mitochondrial DNA; assay: induction of "small colony" cytoplasmic mutations; assay type: cell-based, Saccharomyces cerevisiae; details: in 10% of the survivors
Description: as §1
If the induction of cytoplasmic mutations is considered as a function of the survivors, the compounds 1a and 1b which are monofunctional derivatives of psoralen, show in 10% of the survivors a rate of induction of cytoplasmic mutation greater than 50%.

[15] = mutagenicity (general statements)
[16] = tested on: psoriatic plaque; assay: therapeutic test comparing 8-methoxypsoralen and product 1b; assay type: in vivo, human; details: 10^-2 M
Excerpt: The concentrations of 8-MOP and product 1b were 10^-2 M in the same excipient as that used in the previous therapeutic test. Both preparations were applied on two rounded zones 3 cm in diameter, located on the same psoriatic plaque and were irradiated according to the same procedure of gradually increasing ultraviolet irradiation until a maximum of 10 J/cm2 per treatment.

[17] = tested on: DNA; assay: formation of cross-links in DNA (general statements); assay type: biochemical; details: from induction of cytoplasmic and nuclear mutations
[18] = tested on: yeast mutant pso2; assay: sensitivity of yeast mutant pso2 versus wild type to photo-addition
[19] = tested on: DNA of cells of the wild type; assay: direct biochemical verification of cross-linking in DNA of cells treated and irradiated at 365 nm; assay type: cell-based, yeast
Excerpt: Indeed, DNA of cells of the wild type were extracted immediately after treatment with products 1a, 1b at a concentration of 10^-5 M and irradiation with two doses of radiation at 365 nm (30% and 5% survival rate). […] If the DNA contains cross-links it renatures itself and is found in the double chain form separable by gradient density from single chain DNA.

[20] = 10 micrograms/cm2, UVA 20 J/cm2
[21] = 30 micrograms/cm2, by the tenth treatment
[22] = 30 micrograms/cm2, from the fourth treatment

CCOC(=O)c1cc2cc3ccoc3cc2oc1=O [3-carbethoxypsoralen, reference compound]
erythematogenicity (conclusion) [1]: is not
photodynamic activity (oxygen dependent) on induction of lethal damages [2]: different
therapeutic activity in patients having psoriasis [3]: having a therapeutic activity in respect to patients having psoriasis
carcinogenicity [4]: completely safe from this point of view

Cc1c2occc2cc2c1oc(=O)c1cnccc12 [Compound 1b, Methyl-7-pyrido (3,4-c) furo (3,2-g) coumarin]
photoaffinity for DNA in vivo compared with 3-CPs [5]: makedly much high than that of monofunctional furocoumarin 3-CPs
photoaffinity for DNA in vivo relative to 8-MOP [5]: ~20 times
photoaffinity in respect to DNA compared with 8-MOP (conclusion) [5]: markedly greater than that of 8-MOP
erythema at 5 J/cm2 ([1]; 10 micrograms/cm2, 2 hours before UVA 5 J/cm2): no precocious or delayed erythema was observed
duration of erythema [1, 20]: 18 days
time of appearance of erythema [1, 20]: 72 h
erythema at 20 J/cm2 ([1]; 10 micrograms/cm2, UVA 20 J/cm2 through glass plate): slight erythema
desquamation or local pain ([1]; UVA 20 J/cm2): no desquamation or local pain
systolic pulse of the capillaries at erythematic zones (reflective photoplethysmography) ([1]; UVA 20 J/cm2): doubling of the systolic pulse
erythematogenicity (conclusion) [1]: not erythmatogenic in conditions of irradiation customarily used in human therapy; also recorded: very mildly erythmatogenic
photoreactivity compared with 4,5',8-trimethylpsoralen (conclusion) [2]: close to that of 4,5'-8-trimethylpsoralen
activity on cell survival relative to 8-MOP ([2]; 5×10^-6 M, survival curves): 5 times
activity compared with 4,5',8-trimethylpsoralen ([2]; equimolar 5×10^-6 M): activity close to that of 4,5', 8-trimethylpsoralen
photodynamic activity (oxygen dependent) on induction of lethal damages [2]: do not exert on the yeast photodynamic activity
coefficient of molecular absorption at 365 nm [6]: notably a higher coefficient of molecular absorption at 365 nm
His+ reversions rate compared with 3-CPs [7]: less than that observed after the treatment with 3-CPs
His+ reversions rate compared with 8-MOP and 4,5',8-TMeP [7]: very much less than that observed after treatment with the bifunctional agents 8-MOP and 4,5', 8-TMeP
LD10 (dose which leaves 10% survive) ([8]; UVA): 540 J/cm2
considerable photosensitivity in V79 cells ([8]; UVA): considerable photosensitivity
relative antiproliferatory effect ([8]; UVA): markedly more effective than compound 1a; also recorded: compared to 8-MOP, a higher antiproliferatory effect; also recorded: comparable to that of bifunctional furocoumarins
diminution of cell survival in absence of radiation ([8]; no radiation): no diminution of cell survival
inhibition capacity (DNA) compared with 3-CPs [9]: much more than 3-CPs
inhibition capacity (DNA) compared with 8-MOP [9]: slightly more powerful than 8-MOP
forward mutations as a function of surviving fractions compared with 3-CPs, 8-MOP and 4,5',8-TMeP [10]: markedly less mutagenic than 3-CPs and the bifunctional compounds 8-MOP and 4,5', 8-TMeP
forward mutations as a function of UVA doses compared with 3-CPs ([10]; 5×10^-6 M versus 3-CPs at 5×10^-5 M): comparable to those obtained with 3-CPs at 5×10^-5 M
inhibition capacity (RNA) compared with 3-CPs [11]: much more than 3-CPs
inhibition capacity (RNA) compared with 8-MOP [11]: slightly more powerful than 8-MOP
antipsoriatic action, third patient ([12]; 30 μg/cm2 two hours before UVA): complete whitening of the psoriasis
antipsoriatic action, two of three patients ([12]; 30 μg/cm2 two hours before UVA): moderately better than product 1a
pigmentogenic effect, two of three patients ([12]; 30 μg/cm2 two hours before UVA): more pigmentogenic
antipsoriatic action of product 1b versus 1a (overall) ([12]; 10 treatments of PUVA, total dose 50 J/cm2): antipsoriatic action superior to that of product 1a
erythema or secondary effect during treatments ([12]; 30 micrograms/cm2): no erythema or secondary effect was observed
hyperpigmentation ([12]; 30 micrograms/cm2): hyperpigmentation was found in the two zones, in particular the one treated with product 1b
total UVA dose to complete whitening [12, 21]: 50 J/cm2
whitening of treated zones [12, 21]: complete whitening of the zones treated
decrease of squamae [12, 22]: slight decrease of the squamae
reduction of infiltration [12, 22]: tangible reduction of the infiltration
antipsoriatic activity (conclusion) ([12]; applied locally): good antipsoriatic activity; also recorded: best therapeutic results
pigmentogenic properties, 1b versus 1a [13]: superior to those of product 1a; also recorded: more pigmentogenic than product 1a
pigmentation of normal skin ([13]; three normal patients, total UVA doses of 140 J/cm2): Visible pigmentation was observed on three normal patients tested with product 1b in all three cases
rate of induction of cytoplasmic mutation [14]: greater than 50%
mutagenicity compared with 3-carbethoxypsoralen (conclusion) [15]: less mutagenic than 3-carbethoxypsoralen
deterioration after end of treatment ([16]; one patient without further treatment): practically no deterioration
antipsoriatic effectiveness compared with 8-methoxypsoralen ([16]; three patients, up to 10 J/cm2 per treatment): more effective than 8-methoxypsoralen
formation of cross-links in the DNA (conclusion) [17]: incapable of forming cross-links in the DNA
photoreactivity on yeast strains [18]: very photoreactive
sensitivity of pso2 mutant compared with wild type ([18]; photo-addition): same sensitivity as the wild type
form of DNA after renaturation (cross-links) ([19]; 10^-5 M, 365 nm, two doses (30% and 5% survival rate)): remains in single chain form after renaturation
functional type (mono/bifunctional) ([19]; pso2 mutant and direct examination of DNA): mono functional type
